≈ marks a conversion by molar mass, not a printed value. Where no end group is shown, it is not given here.
Assays:
[1] = test system: Escherichia coli ATCC 25922; assay: microbe, parasite or virus in culture; format: cell-based; conditions: Gram-negative, broth microdilution, Luria-Bertani broth, 1–64 μg/mL two-fold serial dilutions, triplicate
Method: (§1) The antimicrobial activity of each peptide was assessed against four strains, including two Gram-positive (Bacillus subtilis ATCC 6633 and Staphylococcus aureus ATCC 6538p) and two Gram-negative bacteria (Escherichia coli ATCC 25922 and Shigella dysentariae ATCC 9752) cultured in Luria-Bertani broth media. Antibacterial susceptibility was determined as the MIC value, which was measured using the standard broth microdilution method as described previously. […] Two conventional antibiotics, ampicillin and kanamycin, were used as controls to confirm antibiotic susceptibility. The tests were performed in triplicate, and the MIC values that were reproduced twice or thrice in the three independent measurements were employed to calculate the GM value.

[2] = test system: Bacillus subtilis ATCC 6633; assay: microbe, parasite or virus in culture; format: cell-based; conditions: Gram-positive, broth microdilution, Luria-Bertani broth, 1–64 μg/mL two-fold serial dilutions, lowest concentration that completely inhibited growth, triplicate
Method: as §1

[3] = test system: Staphylococcus aureus ATCC 6538p; assay: microbe, parasite or virus in culture; format: cell-based; conditions: Gram-positive, broth microdilution, Luria-Bertani broth, 1–64 μg/mL two-fold serial dilutions, triplicate
Method: as §1

[4] = test system: Shigella dysentariae ATCC 9752; assay: microbe, parasite or virus in culture; format: cell-based; conditions: Gram-negative, broth microdilution, Luria-Bertani broth, 1–64 μg/mL two-fold serial dilutions, triplicate
Method: as §1

human red blood cells = human red blood cells 10% v/v in PBS, 1 h; for MHC, minimal hemolytic concentration: lowest concentration showing 5% or more hemolysis, 1–64 μg/mL, A550, relative to 0.2% Triton X-100, triplicate; for percentage hemolysis: at 64 μg/mL, relative to 0.2% Triton X-100, average of three measurements
Method: Briefly, suspensions of human red blood cells (10% v/v in PBS) were treated for 1 h with various concentrations (1–64 μg/mL, two-fold serial dilutions) of peptides, followed by measurement of the absorbance of the supernatant at 550 nm. The relative attenuation was determined as the percentage of hemolysis compared to that of the blood suspension treated with 0.2% Triton X-100. The tests were performed in triplicate, and the average values of three independent measurements were recorded.

[5] = test system: two Gram-positive and two Gram-negative bacterial strains; assay: Antimicrobial assay, MICs over the four strains (geometric mean); format: cell-based, B. subtilis, S. aureus, E. coli, S. dysentariae; conditions: geometric mean of the MICs against the four strains
Method: as §1

RAW264.7 cells = conditions: at the concentrations tested, 16 h
Method: (§2) Macrophage cells seeded in 96-well cell culture plates at a density of 3 × 10^4 cells/well were incubated for 24 h, followed by treatment with LPS or individual WALK peptides and subsequent incubation for 16 h. Cell viability was then assessed by the conventional MTT assay. Briefly, the medium in each well was replaced with 100 μL of RPMI medium containing MTT (500 μg/mL). After 2 h of incubation, the medium was discarded and the insoluble formazan in each well was dissolved in 100 μL of DMSO with shaking. The absorbance of the solution at 550 nm was measured using a spectrophotometric microplate reader to determine the percentage of cell viability relative to that of control cells.

[6] = test system: LPS-stimulated J774A.1 cells; assay: Nitric oxide (NO) production, Griess reaction assay; format: cell-based, murine; conditions: LPS 100 ng/mL 16 h; for inhibitory effect against NO production: peptides 8, 4 and 2 μM, pretreatment 5 min, nitrite by Griess
Method: NT, non-treated; LPS, lipopolysaccharides. (A) Cytotoxicity was assessed using the MTT assay. […] (B) Anti-inflammatory potential deduced by NO assay.
The macrophage cells were seeded (3 × 10^4 cells/well) and incubated in 96-well plates for 24 h, followed by pretreatments with the WALK peptides at designated concentrations for 5 min and subsequent stimulation with 100 ng/mL of LPS for 16 h. The nitrite concentration in the culture medium was determined using the Griess reaction assay. Briefly, the culture supernatant (100 μL) was mixed with an equal volume of Griess reagent (1% sulfanilamide, 0.1% N-1-naphthyl ethylenediamine) and incubated for 5 min. The absorbance of the resulting chromophoric azo-derivative molecules was measured at 550 nm using a microplate reader with a fresh culture medium as a blank. The amount of nitrite in each sample was determined using a standard curve generated using a range of dilutions of sodium nitrite solutions.

J774A.1 cells = conditions: peptides 8, 4 and 2 μM, 16 h
Method: (A) Cytotoxicity was assessed using the MTT assay. The cells were treated with lipopolysaccharides (LPS, 100 ng/mL) or peptides (8–2 μM, two-fold serial dilutions) for 16 h, followed by estimating the cell viability as the percentage of surviving cells compared to that of the control cells.
as §2

Row | Molecule | MIC, E. coli [1] | MIC, B. subtilis [2] | MIC, S. aureus [3] | MIC, S. dysentariae [4] | MHC, minimal hemolytic concentration (human red blood cells) | GM, geometric mean of MICs [5] | cytotoxicity (MTT assay) (RAW264.7 cells) | percentage hemolysis (human red blood cells) | MIC ([1]; Escherichia coli, ATCC25922) | MIC ([2]; Bacillus subtilis, ATCC6633, read-out: MIC, B. subtilis) | MIC ([3]; Staphylococcus aureus, ATCC6538P, read-out: MIC, S. aureus) | MIC ([4]; Shigella, ATCC9752, read-out: MIC, S. dysentariae) | geometric mean MIC ([5]; read-out: GM, geometric mean of MICs) | inhibitory effect against NO production [6] | cytotoxicity (MTT assay) (J774A.1 cells) | NO inhibition at 8 μM ([6]; peptide 8 μM)
1 | LKWLLKWLKK-NH2 [WALK244.03] | 8 µg/mL | 8 µg/mL | 8 µg/mL | 32 µg/mL | 64 µg/mL | 11.3 µg/mL | – | – | – | – | – | – | – | – | – | –
2 | WLKKLLKWL-NH2 [WALK243.08] | 2 µg/mL | 2 µg/mL | 2 µg/mL | 2 µg/mL | 8 µg/mL | 2.0 µg/mL | – | – | – | – | – | – | – | – | – | –
3 | WLKKWLKKLL-NH2 [WALK244.01] | 2 µg/mL | ≤1 µg/mL | 2 µg/mL | 2 µg/mL | 16 µg/mL | ≤1.7 µg/mL | – | – | – | – | – | – | – | – | – | –
4 | KLLKWLLKW-NH2 [WALK243.05] | 2 µg/mL | 2 µg/mL | 2 µg/mL | 16 µg/mL | 64 µg/mL | 3.4 µg/mL | did not demonstrate significant cytotoxicity | – | – | – | – | – | – | – | – | –
5 | KWLLKWLLK-NH2 [WALK243.02] | 4 µg/mL | 4 µg/mL | 4 µg/mL | 16 µg/mL | 64 µg/mL | 5.7 µg/mL | did not demonstrate significant cytotoxicity | 6.7% | – | – | – | – | – | – | – | –
6 | NC[C@H]1O[C@H](O[C@H]2[C@H](O)[C@@H](O[C@H]3O[C@H](CO)[C@@H](O)[C@H](N)[C@H]3O)[C@H](N)C[C@@H]2N)[C@H](O)[C@@H](O)[C@@H]1O [Kanamycin, kanamycin, reference compound] | 4 µg/mL (≈ 8.26 µM) | 4 µg/mL (≈ 8.26 µM) | 4 µg/mL (≈ 8.26 µM) | 8 µg/mL (≈ 16.5 µM) | – | 4.8 µg/mL | – | – | – | – | – | – | – | – | – | –
7 | CC1(C)S[C@@H]2[C@H](NC(=O)[C@H](N)c3ccccc3)C(=O)N2[C@H]1C(=O)O [Ampicillin, ampicillin, reference compound] | – | – | – | – | – | – | – | – | ≤ 1 µg/mL | ≤ 1 µg/mL | ≤ 1 µg/mL | ≤ 1 µg/mL | ≤ 1 µg/mL | – | – | –
8 | LKKWLKWLLK-NH2 [WALK244.07] | 2 µg/mL | 2 µg/mL | 2 µg/mL | 8 µg/mL | 32 µg/mL | 2.8 µg/mL | – | – | – | – | – | – | – | dose-dependent inhibitory effect | no significant cytotoxicity | –
9 | WLKKLLKWLK-NH2 [WALK244.08] | 2 µg/mL | 2 µg/mL | ≤1 µg/mL | 4 µg/mL | 8 µg/mL | ≤2.0 µg/mL | – | – | – | – | – | – | – | – | – | –
10 | KWLLKWLKKL-NH2 [WALK244.02] | 2 µg/mL | 2 µg/mL | 2 µg/mL | 8 µg/mL | 32 µg/mL | 2.8 µg/mL | – | – | – | – | – | – | – | dose-dependent inhibitory effect | no significant cytotoxicity | –
11 | KKLLKWLLKW-NH2 [WALK244.06] | 16 µg/mL | 2 µg/mL | 3 µg/mL | 16 µg/mL | 32 µg/mL | 6.3 µg/mL | – | – | – | – | – | – | – | – | – | –
12 | KLLKWLKKWL-NH2 [WALK244.05] | 2 µg/mL | 2 µg/mL | 2 µg/mL | 4 µg/mL | 32 µg/mL | 2.4 µg/mL | – | – | – | – | – | – | – | dose-dependent inhibitory effect | no significant cytotoxicity | near-complete NO inhibition
13 | KWLKKLLKWL-NH2 [WALK244.09] | 2 µg/mL | ≤1 µg/mL | 2 µg/mL | 2 µg/mL | 8 µg/mL | ≤1.7 µg/mL | – | 80.7% | – | – | – | – | – | – | – | –
14 | WLLKWLKKL-NH2 [WALK243.01] | 4 µg/mL | 4 µg/mL | 4 µg/mL | 8 µg/mL | 32 µg/mL | 4.8 µg/mL | – | – | – | – | – | – | – | – | – | –
15 | KWLLKLLKW-NH2 [WALK243.09] | 8 µg/mL | 4 µg/mL | 4 µg/mL | 16 µg/mL | 64 µg/mL | 6.7 µg/mL | – | – | – | – | – | – | – | – | – | –
16 | LKWLLKWLK-NH2 [WALK243.03] | 8 µg/mL | 4 µg/mL | 4 µg/mL | 16 µg/mL | 32 µg/mL | 6.7 µg/mL | – | – | – | – | – | – | – | – | – | –
17 | LKKWLKWLL-NH2 [WALK243.07] | 2 µg/mL | 2 µg/mL | 2 µg/mL | 4 µg/mL | 16 µg/mL | 2.4 µg/mL | – | – | – | – | – | – | – | – | – | –
18 | LKWLKKLLKW-NH2 [WALK244.10] | 8 µg/mL | 2 µg/mL | 2 µg/mL | 8 µg/mL | 32 µg/mL | 4.0 µg/mL | – | – | – | – | – | – | – | – | – | –

From article PMC9686928, “10-mer and 9-mer WALK Peptides with Both Antibacterial and Anti-Inflammatory Activities” (Antibiotics, 2022)
